86 compounds from a flash point compilation (Sun et al. 2020) can be followed below.

Molecules are shown by their SMILES.

As to `CC(C)CO` [2-methylpropan-1-ol], the flash point was 28.00 °C.

As to `CC(C)(C)N` [2-methylpropan-2-amine], the flash point worked out at 10.00 °C. Still for that read-out and setting: the same measure for `CCOCC` [ethoxyethane]: -45.00 °C. Same read-out and setting: the same measure for `CCCCCCCO` [heptan-1-ol]: 77.00 °C; for `CCCCCCCCCO` [nonan-1-ol]: 74.00 °C. On the same count and under the same terms, the result for `CCCCCCCC` [octane] reads 13.00 °C; that for `C=CCN` [prop-2-en-1-amine], -29.00 °C.

The source holds these as a separate data set.
Turning to `CC(C)(C)C(C)(C)C` [2,2,3,3-Tetramethylbutane], the flash point was -0 °C. For `CC(C)C(C)C(C)(C)C` (stereo unspecified) [2,2,3,4-Tetramethylpentane], the flash point is 11 °C. Still for that read-out and setting: the same measure for `CC(C)C(C)(C)C` [2,2,3-Trimethylbutane]: -26 °C; for `CCCC(C)C(C)(C)C` (stereo unspecified) [2,2,3-Trimethylhexane]: 15 °C.

This is another data set of the same source.
As for `CC(C)c1cccc(C(C)C)c1` [1,3-diisopropylbenzene], the flash point came to 76 °C. Still for that read-out and setting: the result for `CCCc1ccccc1` [propylbenzene] reads 47 °C; that for `C1CCOC1` [tetrahydrofuran], -21 °C.

The source holds these as a separate data set.
For the compound `CC(C)CO` [2-methylpropan-1-ol], the flash point was found to be 30.00 °C. The same measure, in the same setting: the result for `CC(C)(C)N` [2-methylpropan-2-amine] reads -38.00 °C; that for `CCOCC` [ethoxyethane], -40.00 °C. The same measure, in the same setting: the same measure for `CCCCCCCO` [heptan-1-ol]: 73.00 °C. Same read-out and setting: the result for `CC(C)c1ccccc1` [isopropylbenzene] reads 46.00 °C; that for `CCCCCCCCCO` [nonan-1-ol], 80.00 °C; that for `CCCCCCCC` [octane], 16.00 °C. As to `CCC(O)CC` [pentan-3-ol], the flash point was found to be 40.00 °C.

Take `NCc1ccccc1` [phenylmethanamine]: the flash point is 72.00 °C. In turn, `c1ccc(COCc2ccccc2)cc1` [phenylmethoxymethylbenzene] returned a flash point of 135.00 °C. For `C=CCN` [prop-2-en-1-amine], the flash point is -28.00 °C. On the same count and under the same terms, the result for `CC(O)CO` (stereo unspecified) [propane-1,2-diol] reads 104.44 °C; that for `C1CCOC1` [tetrahydrofuran], -25.56 °C.

This is another data set of the same source.
For `C=CCNCCC[Si](OC)(OC)OC` [3-(N-ALLYLAMINO)PROPYLTRIMETHOXYSILANE], the flash point came out at 88.00 °C. The same measure, in the same setting: the same measure for `CCO[Si](CCCN)(OCC)OCC` [3-AMINOPROPYLTRIETHOXYSILANE]: 104.00 °C. `CO[Si](CCCN)(OC)OC` [3-AMINOPROPYLTRIMETHOXYSILANE]: the flash point is 83.00 °C. Same read-out and setting: the same measure for `C[Si](C)(C)CCCN` [3-AMINOPROPYLTRIMETHYLSILANE]: 59.00 °C; for `COCCOCCO[Si](CCCN)(OCCOCCOC)OCCOCCOC` [3-AMINOPROPYLTRIS(METHOXYETHOXYETHOXY)SILANE]: 68.00 °C. The same measure, in the same setting: the result for `C=CC(=O)OCCC[Si](C)(C)OC` [(3-ACRYLOXYPROPYL)DIMETHYLMETHOXYSILANE] reads 85.00 °C. Same read-out and setting: the same measure for `C=CC(=O)OCCC[Si](OC)(OC)OC` [(3-ACRYLOXYPROPYL)TRIMETHOXYSILANE]: 123.00 °C.

`C=CC(=O)OCCC[Si](O[Si](C)(C)C)(O[Si](C)(C)C)O[Si](C)(C)C` [(3-ACRYLOXYPROPYL)TRIS(TRIMETHYLSILOXY)SILANE] returned a flash point of 93.00 °C. Same read-out and setting: the result for `C[Si](C)(C)CN=[N+]=[N-]` [(AZIDOMETHYL)TRIMETHYLSILANE] reads 6.00 °C.

`CC(=O)OCC[Si](C)(C)Cl` [ACETOXYETHYLDIMETHYLCHLOROSILANE]: the flash point turned out to be 63.00 °C. On the same count and under the same terms, the result for `CC(=O)OCC[Si](C)(Cl)Cl` [ACETOXYETHYLMETHYLDICHLOROSILANE] reads 65.00 °C.

With `CCO[Si](CCOC(C)=O)(OCC)OCC` [ACETOXYETHYLTRIETHOXYSILANE], the flash point was found to be 99.00 °C. Still for that read-out and setting: the same measure for `CC(=O)O[Si](C)(C)C` [ACETOXYTRIMETHYLSILANE]: 4.00 °C; for `CC(=O)[Si](C)(C)C` [ACETYLTRIMETHYLSILANE]: 8.00 °C; for `C=CC(=O)OC[Si](OC)(OC)OC` [ACRYLOXYMETHYLTRIMETHOXYSILANE]: 62.00 °C. `C=CC[Si](Cl)(Cl)CCCCl` [ALLYL(3-CHLOROPROPYL)DICHLOROSILANE] showed a flash point of 76.00 °C. On the same count and under the same terms, the result for `C=CC[Si](C)(C)c1ccc(OC)cc1` [ALLYL(4-METHOXYPHENYL)DIMETHYLSILANE] reads 102.00 °C; that for `C=CC[Si](C)(C)CCl` [ALLYL(CHLOROMETHYL)DIMETHYLSILANE], 27.00 °C.

Turning to `C=CCN[Si](C)(C)C` [ALLYLAMINOTRIMETHYLSILANE], the flash point came out at 10.00 °C. Consider `C=CC[SiH](Cl)Cl` [ALLYLDICHLOROSILANE], for which the flash point was -4.00 °C. Regarding `C=CCO[Si](C)(C)C(C)(C)C` [ALLYLOXY-t-BUTYLDIMETHYLSILANE], the flash point is 32.00 °C. Same read-out and setting: the result for `C=CC[Si](Cl)(Cl)c1ccccc1` [ALLYLPHENYLDICHLOROSILANE] reads 76.00 °C. The compound `C=CC[Si](Cl)(Cl)Cl` [ALLYLTRICHLOROSILANE] had a flash point of 31.00 °C.

Compound `C=CC[Si](OCC)(OCC)OCC` [ALLYLTRIETHOXYSILANE] had a flash point of 47.00 °C. On the same count and under the same terms, the same measure for `C=CC[Si](C(C)C)(C(C)C)C(C)C` [ALLYLTRIISOPROPYLSILANE]: 76.00 °C. On the same count and under the same terms, the result for `C=CC[Si](C)(C)C` [ALLYLTRIMETHYLSILANE] reads 7.00 °C; that for `C[Si](C)(Cl)Cc1ccccc1` [BENZYLDIMETHYLCHLOROSILANE], 73.00 °C; that for `CCO[Si](CCCNCCN)(OCC)OCC` [N-(2-AMINOETHYL)-3-AMINOPROPYLTRIETHOXYSILANE], 148.00 °C. Same read-out and setting: the same measure for `CO[Si](CCCNCCN)(OC)OC` [N-(2-AMINOETHYL)-3-AMINOPROPYLTRIMETHOXYSILANE]: 150.00 °C; for `COCN(Cc1ccccc1)C[Si](C)(C)C` [N-BENZYL-N-METHOXYMETHYL-N-(TRIMETHYLSILYLMETHYL)AMINE]: 66.00 °C; for `CO[Si](OC)(OC)c1cccc(N)c1` [m-AMINOPHENYLTRIMETHOXYSILANE]: 180.00 °C.

This is another data set of the same source.
As to `CCCc1cccc(C)c1C` [1,2-dimethyl-3-propylbenzene], the flash point stood at 72 °C. On the same count and under the same terms, the same measure for `Cc1ccc(C(C)C)cc1C` [1,2-dimethyl-4-isopropylbenzene]: 68.1 °C. Same read-out and setting: the same measure for `CCc1cc(CC)cc(CC)c1` [1,3,5-triethylbenzene]: 81.1 °C; for `CCc1ccc(C)c(CC)c1` [1,3-diethyl-4-methylbenzene]: 72.2 °C. The same measure, in the same setting: the same measure for `CCc1cc(C)cc(CC)c1` [1,3-diethyl-5-methylbenzene]: 70 °C; for `CC(C)c1cccc(C(C)C)c1` [1,3-diisopropylbenzene]: 76.8 °C; for `Cc1ccc(C(C)C)c(C)c1` [1,3-dimethyl-4-isopropylbenzene]: 67.2 °C.

The compound `CCc1ccc(CC)c(C)c1` [1,4-diethyl-2-methylbenzene] had a flash point of 73.0 °C. Take `CC(C)c1ccc(C(C)C)cc1` [1,4-diisopropylbenzene]: the flash point was found to be 76.1 °C. Same read-out and setting: the same measure for `CCCCc1ccccc1C` [1-butyl-2-methylbenzene]: 72.5 °C; for `CCCc1cccc(CC)c1` [1-ethyl-3-propylbenzene]: 69.7 °C. Still for that read-out and setting: the same measure for `Cc1ccc(CC(C)C)cc1` [1-isobutyl-4-methylbenzene]: 67.4 °C; for `CCC(C)c1ccc(C)cc1C` (stereo unspecified) [1-sec -butyl-2,4-dimethylbenzene]: 81.4 °C. For `CCC(C)c1cccc(C)c1` (stereo unspecified) [1-sec -butyl-3-methylbenzene], the flash point was found to be 63.1 °C. The same measure, in the same setting: the result for `CCC(C)c1ccc(C)cc1` (stereo unspecified) [1-sec -butyl-4-methylbenzene] reads 65 °C. Still for that read-out and setting: the result for `Cc1cccc(C(C)(C)C)c1` [1-tert -butyl-3-methylbenzene] reads 60.6 °C; that for `CCc1ccc(C(C)(C)C)cc1` [1-tert -butyl-4-ethylbenzene], 76.0 °C.

`CCc1cc(C)ccc1C` [2-ethyl-p -xylene]: the flash point is 56.1 °C. On to `CCc1ccc(C)c(C)c1` [4-ethyl-o -xylene], for which the flash point was 58.1 °C. The same measure, in the same setting: the result for `Cc1ccc(C(C)(C)C)cc1` [4-tert -butyltoluene] reads 54.1 °C; that for `CC(C)C(C)c1ccccc1` (stereo unspecified) [(1,2-dimethylpropyl)benzene], 57.0 °C. Still for that read-out and setting: the same measure for `CCCC(CC)c1ccccc1` (stereo unspecified) [(1-ethylbutyl)benzene]: 74.2 °C; for `CCCCCCC(C)c1ccccc1` (stereo unspecified) [(1-methylheptyl)benzene]: 100.1 °C; for `CCCCCC(C)c1ccccc1` (stereo unspecified) [(1-methylhexyl)benzene]: 87.2 °C. Still for that read-out and setting: the same measure for `CC(C)c1ccccc1` [cumene]: 31.1 °C; for `CC(C)CCc1ccccc1` [isopentylbenzene]: 62.1 °C.

In the case of `Cc1cccc(C(C)C)c1` [m -cymene], the flash point was 47.1 °C. For `Cc1ccccc1C(C)C` [o -cymene], the flash point came to 50.1 °C. On the same count and under the same terms, the result for `CCc1ccccc1CC` [o -diethylbenzene] reads 55.1 °C; that for `CCc1ccccc1C` [o -ethyltoluene], 39.1 °C; that for `CCCc1ccccc1C` [o -propyltoluene], 57.8 °C. Still for that read-out and setting: the same measure for `CCc1ccc(CC)cc1` [p -diethylbenzene]: 55.1 °C; for `CCc1ccc(C)cc1` [p -ethyltoluene]: 36.1 °C; for `Cc1ccc(C)cc1` [p -xylene]: 25.1 °C. Still for that read-out and setting: the result for `CCCc1ccccc1` [propylbenzene] reads 42.1 °C; that for `CCC(C)c1ccccc1` (stereo unspecified) [sec -butylbenzene], 52 °C; that for `CCCC(C)c1ccccc1` (stereo unspecified) [sec -pentylbenzene], 60.7 °C. Compound `Cc1ccccc1` [toluene] registered a flash point of 7.1 °C.
